Laboratory results reported in patent publication US20240261418A1, “SOS1 DEGRADING AGENT AND PREPARATION METHOD THEREFOR AND APPLICATION THEREOF” (SHANGHAI LEADINGTAC PHARMACEUTICAL CO. LTD., priority 2021, published 2024).

What was measured:
[1] = biological target: T1, KRAS-G12C/SOS1 (Homo sapiens, UniProt Q07889); test: KRAS-G12C/SOS1 binding assay (HTRF); conditions: inhibition of KRAS-G12C/SOS1 binding
T1 construct: purchased Cisbio 63ADK000CB16PEG
T1 sequence (Q07889 1-1333): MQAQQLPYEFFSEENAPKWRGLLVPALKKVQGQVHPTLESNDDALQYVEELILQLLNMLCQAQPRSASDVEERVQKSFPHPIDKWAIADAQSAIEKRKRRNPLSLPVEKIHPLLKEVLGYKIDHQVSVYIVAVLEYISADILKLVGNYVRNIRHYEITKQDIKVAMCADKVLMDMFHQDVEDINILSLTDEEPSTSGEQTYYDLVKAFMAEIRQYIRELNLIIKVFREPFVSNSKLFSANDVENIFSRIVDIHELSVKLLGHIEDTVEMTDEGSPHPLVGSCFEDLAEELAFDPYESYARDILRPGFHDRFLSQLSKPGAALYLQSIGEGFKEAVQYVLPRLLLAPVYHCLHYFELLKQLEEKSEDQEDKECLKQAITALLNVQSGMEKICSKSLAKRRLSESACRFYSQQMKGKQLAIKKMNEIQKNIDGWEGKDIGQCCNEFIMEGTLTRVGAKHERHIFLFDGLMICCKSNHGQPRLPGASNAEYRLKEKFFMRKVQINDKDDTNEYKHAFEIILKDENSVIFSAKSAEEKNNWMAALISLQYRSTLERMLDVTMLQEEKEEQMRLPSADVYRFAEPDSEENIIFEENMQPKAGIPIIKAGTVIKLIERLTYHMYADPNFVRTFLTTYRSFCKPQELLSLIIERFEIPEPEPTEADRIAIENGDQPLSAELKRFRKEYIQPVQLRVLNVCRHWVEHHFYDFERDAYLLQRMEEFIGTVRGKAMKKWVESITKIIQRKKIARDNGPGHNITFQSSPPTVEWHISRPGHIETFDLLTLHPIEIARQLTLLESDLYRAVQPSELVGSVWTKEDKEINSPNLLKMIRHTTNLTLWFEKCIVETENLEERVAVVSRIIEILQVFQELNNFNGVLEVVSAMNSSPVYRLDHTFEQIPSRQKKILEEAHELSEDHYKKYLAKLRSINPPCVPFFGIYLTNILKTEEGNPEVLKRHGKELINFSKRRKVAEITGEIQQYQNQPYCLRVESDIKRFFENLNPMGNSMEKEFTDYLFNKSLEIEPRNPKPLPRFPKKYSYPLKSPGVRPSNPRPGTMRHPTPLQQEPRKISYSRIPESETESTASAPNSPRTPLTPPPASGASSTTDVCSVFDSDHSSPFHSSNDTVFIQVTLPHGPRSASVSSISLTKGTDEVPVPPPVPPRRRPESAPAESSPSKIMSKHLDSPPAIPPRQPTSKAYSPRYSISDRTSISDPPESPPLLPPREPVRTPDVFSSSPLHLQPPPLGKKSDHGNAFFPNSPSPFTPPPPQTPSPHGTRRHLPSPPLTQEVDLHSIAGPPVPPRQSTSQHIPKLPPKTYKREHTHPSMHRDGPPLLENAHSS
Method: Test Example 1: KRAS-G12C/SOS1 Binding Assay
The following method was used to determine the extent of inhibition of KRAS-G12C/SOS1 binding by the preferred compounds of the present invention under in vitro conditions. In this method, the competitive inhibition of KRAS-G12C/SOS1 binding by the preferred compounds was assayed by the homogeneous time-resolved fluorescence (HTRF) technology using the KRAS-G12C/SOS1 binding assay kit (Cisbio, 63ADK000CB16PEG).
The experimental procedures were as follows (refer to the kit instructions for details): the compounds of the present invention were each firstly dissolved in DMSO at a concentration of 20 mM, and then diluted in an equal gradient with a buffer in the kit, so that the final concentrations of the test compounds in the reaction system were in a range of 10000 nM-0.04 nM, and the final concentration of DMSO was 0.5%. 2 μL of the compounds were each incubated with 4 μL of 1×Tag1-SOS1, 4 μL of 1×Tag2-KRAS-G12C (containing 10 μM guanosine triphosphate, GTP) at 25° C. for 15 min. Then 5 μL of 1×Anti-Tag1-Tb3+ and 5 μL of 1×Anti-Tag2-XL665 were added to the reaction system, and the mixture was incubated on ice for 3 h. After the incubation, the fluorescence intensity of each well was measured at the excitation wavelength of 337 nm, the fluorescence intensity of each well was read at the emission wavelengths of 620 nm and 665 nm on a microplate reader EnVision (PerkinElmer, 2105) in an HTRF mode, and the Ratio value was calculated by the formula Ratio=(665 nm/620 nm)×[…]. The inhibition rates of the compounds at each concentration were calculated by comparing the fluorescence intensity ratio with that of the control group, and then nonlinear curve fitting was performed by GraphPad Prism 8 in the logarithmic concentration-inhibition rate to obtain the IC50 values of the compounds, as shown in Table 1.

[2] = biological target: T2, SOS1 protein (Homo sapiens, UniProt Q07889); test: SOS1 degradation assay (Western blot) in NCI-H358 cells; type: cell-based; conditions: NCI-H358 (KRAS G12C), 24 h
T2 sequence (Q07889 1-1333): T1 sequence (Q07889 1-1333)
Method: The specific procedures were as follows:
0.95 mL of cells were seeded into each well of a 24-well cell culture plate to achieve a cell density of 5×10^5 cells/well; the cell plate was incubated in an incubator at 37° C. with 5% CO2 overnight. Then 50 μL of the compound solution after dilution was added to each of the wells with the corresponding cells, so that the final concentration of the compound was in a range of 0.03-3000 nM.
After dosing, the cell plate was incubated in an incubator at 37° C. with 5% CO2 for 24 h. […] After the plate was left to stand on ice for 30 min, the protein lysate in each well was transferred to a 1.5 mL centrifuge tube and centrifuged at 15000 g for 20 min at 4° C. The cell lysate supernatant after centrifugation was cryopreserved at −80° C. for testing and was used for determining the degradation level of the SOS1 protein by a WB method. The concentration of total protein in the cell lysate supernatant was determined using the BCA Protein Quantification Kit (Tiangen, PA115-02).
The concentration of total protein in the cell lysate was determined by BCA. The total protein was adjusted to 0.5 μg/μL with PBS and 5×SDS- PAGE protein loading buffer (Beyotime, P001L), incubated in a water bath at 100° C. for 15 min, incubated in an ice bath on ice for 5 min, centrifuged at 14000 g for 1 min at 4° C., and mixed well as a loading sample for WB. Protein electrophoresis was performed on a precast gel (KeyGEN, KGMG010W15) with a loading volume of 10 μL (total protein: 5 μg) using a Tris-MOPS-SDS running solution (Adamas, P1598253) at a constant voltage of 120 V for 55 min. After the electrophoresis, the protein on the gel strip was transferred to a PVDF membrane at a constant current of 250 mA for 65 min. After the membrane transfer, the membrane was incubated in 1× QuickBlock blocking buffer (Beyotime, P0235) for 30 min at room temperature. […] The protein map was subjected to gray value analysis by the chemiluminescence imaging system from Clinx. […] Then the degradation rate was calculated by comparing the gray correction value with the gray correction value of the control group. Then nonlinear curve fitting was performed by GraphPad Prism 8 in the logarithmic concentration-inhibition rate to obtain the DC50 and Dmax values of the compounds.

SMILES	IC50 [1]	DC50 [2]	Dmax [2]	NCI-H358 (G12C) Dmax [2]
CNCc1ccccc1-c1csc([C@@H](C)Nc2nc(C)nc3cc(OC)c([C@H]4CC[C@H](C(=O)N5CCN(CC6CCC7(CC6)CCN(C(=O)c6ccc(Cl)c(N8CCC(=O)NC8=O)c6)CC7)CC5)CC4)cc23)c1 [Example 2, 1-(2-chloro-5-(9-((4-((1R,4R)-4-(7-methoxy-2-methyl-4-(((R)-1-(4-(2-((methylamino)methyl)phenyl)thien-2-yl)ethyl)amino)quinazolin-6-yl)cyclohexane-1-carbonyl)piperazin-1-yl)methyl)-3-azaspiro[5.5]undecane-3-carbonyl)phenyl)dihydropyrimidine-2,4(1H,3H)-dione]	≤ 15 nM	< 50 nM	80 to 100%	
CNCc1ccccc1-c1csc([C@@H](C)Nc2nc(C)nc3cc(OC)c([C@H]4CC[C@H](C(=O)N5CCC(CCCC6CCN(C(=O)c7ccc(Cl)c(N8CCC(=O)NC8=O)c7)CC6)CC5)CC4)cc23)c1 [Example 3, 1-(2-chloro-5-(4-(3-(1-((1R,4R)-4-(7-methoxy-2-methyl-4-(((R)-1-(4-(2-((methylamino)methyl)phenyl)thien-2-yl)ethyl)amino)quinazolin-6-yl)cyclohexane-1-carbonyl)piperidin-4-yl)propyl)piperidine-1-carbonyl)phenyl)dihydropyrimidine-2,4(1H,3H)-dione]	15 to 30 nM	100 to 500 nM	50 to 80%	
COc1cc2nc(C)nc(N[C@H](C)c3cc(-c4ccccc4CN(C)C)cs3)c2cc1[C@H]1CC[C@H](C(=O)N2CCN(CC3CCC4(CC3)CCN(C(=O)c3ccc(Cl)c(N5CCC(=O)NC5=O)c3)CC4)CC2)CC1 [Example 4, 1-(2-chloro-5-(9-((4-((1R,4R)-4-(4-(((R)-1-(4-(2-((dimethylamino)methyl)phenyl)thien-2-yl)ethyl)amino)-7-methoxy-2-methylquinazolin-6-yl)cyclohexane-1-carbonyl)piperazin-1-yl)methyl)-3-azaspiro[5.5]undecane-3-carbonyl)phenyl)dihydropyrimidine-2,4(1H,3H)-dione]	≤ 15 nM	50 to 100 nM	80 to 100%	
COc1cc2nc(C)nc(N[C@@H](C)c3cc(N)cc(C(F)(F)F)c3)c2cc1[C@H]1CC[C@@H](C(=O)N2CCN(CCC3CCC4(CC3)CCN(C(=O)c3ccc(Cl)c(N5CCC(=O)NC5=O)c3)CC4)CC2)CC1 [Example 6, 1-(5-(9-(2-(4-((1S,4S)-4-(4-(((R)-1-(3-amino-5-(trifluoromethyl)phenyl)ethyl)amino)-7-methoxy-2-methylquinazolin-6-yl)cyclohexane-1-carbonyl)piperazin-1-yl)ethyl)-3-azaspiro[5.5]undecane-3-carbonyl)-2-chlorophenyl)dihydropyrimidine-2,4(1H,3H)-dione]		1000 to 10000 nM		C (30≤Dmax (%)<50)
CCNc1cc([C@@H](C)Nc2nc(C)nc3cc(OC)c([C@H]4CC[C@H](C(=O)N5CCN(CC6CCC7(CC6)CCN(C(=O)c6ccc(Cl)c(N8CCC(=O)NC8=O)c6)CC7)CC5)CC4)cc23)cc(C(F)(F)F)c1 [Example 7, 1-(2-chloro-5-(9-((4-((1R,4R)-4-(4-(((R)-1-(3-(ethylamino)-5-(trifluoromethyl)phenyl)ethyl)amino)-7-methoxy-2-methylquinazolin-6-yl)cyclohexane-1-carbonyl)piperazin-1-yl)methyl)-3-azaspiro[5.5]undecane-3-carbonyl)phenyl)dihydropyrimidine-2,4(1H,3H)-dione]			30 to 50%	
COc1cc2nc(C)nc(N[C@H](C)c3cc(N)cc(C(F)(F)F)c3)c2cc1[C@H]1CC[C@H](C(=O)N2CCC(CCCN(C)C3CCN(Cc4ccc(Cl)c(N5CCC(=O)NC5=O)c4)CC3)CC2)CC1 [Example 10, 1-(5-((4-((3-(1-((1R,4R)-4-(4-(((R)-1-(3-amino-5-(trifluoromethyl)phenyl)ethyl)amino)-7-methoxy-2-methylquinazolin-6-yl)cyclohexane-1-carbonyl)piperidin-4-yl)propyl)(methyl)amino)piperidin-1-yl)methyl)-2-chlorophenyl)dihydropyrimidine-2,4(1H,3H)-dione]				D (Dma (%)<30)
COc1cc2nc(C)nc(N[C@H](C)c3cc(N)cc(C(F)(F)F)c3)c2cc1C1CCC(C(=O)N2CCC(CCOCC3CCN(C(=O)c4ccc5c(c4)C(=O)N(C4CCC(=O)NC4=O)C5=O)CC3)CC2)CC1 (stereo partly drawn) [Example 11, 5-(4-((2-(1-((1S,4S)-4-(4-(((R)-1-(3-amino-5-(trifluoromethyl)phenyl)ethyl)amino)-7-methoxy-2-methylquinazolin-6-yl)cyclohexane-1-carbonyl)piperidin-4-yl)ethoxy)methyl)piperidine-1-carbonyl)-2-(2,6-dioxopiperidin-3-yl)isoindoline-1,3-dione]				A (80≤Dmax (%)≤100)
Cc1nc(N[C@H](C)c2cc(N)cc(C(F)(F)F)c2)c2cc([C@H]3CC[C@H](C(=O)N4CCN(CC5CCC6(CC5)CCN(C(=O)c5ccc(Cl)c(N7CCC(=O)NC7=O)c5)CC6)CC4)CC3)ncc2n1 [Example 50, 1-(5-(9-((4-((1R,4R)-4-(4-(((R)-1-(3-amino-5-(trifluoromethyl)phenyl)ethyl)amino)-2-methylpyrido[3,4-d]pyrimidin-6-yl)cyclohexane-1-carbonyl)piperazin-1-yl)methyl)-3-azaspiro[5.5]undecane-3-carbonyl)-2-chlorophenyl)dihydropyrimidine-2,4(1H,3H)-dione]				B (50≤Dmax (%)<80)
